# Key:
# Assay type in all cases: in vivo
# Set-up in all cases: key: 0 is no effect; 10 is complete control
# [1] = tested on: blackgrass (Alopecurus myosuroides); test: Test B pre-/postemergence; settings: for Plant response rating, Blackgrass: Preemergence; for Blackgrass plant response rating: Postemergence
# Source text: (§1) Seeds of bedstraw (Galium aparine), blackgrass (Alopecurus myosuroides), broadleaf signalgrass (Brachiaria decumbens), cocklebur (Xanthium strumarium), corn (Zea mays), crabgrass (Digitaria sanguinalis), giant foxtail (Setaria faberii), lambsquarters (Chenopodium album), momingglory (Ipomoea hederacea), pigweed (Amaranthus retroflexus), rape (Brassica napus), soybean (Glycine max), sugar beet (Beta vulgaris), velvetleaf (Abutilon theophrasti), wheat (Triticum aestivum), wild oat (Avena fatua) and purple nutsedge (Cyperus rotundus) tubers were planted and treated preemergence with test chemicals formulated in a non-phytotoxic solvent mixture which included a surfactant.
# (§2) At the same time, these crop and weed species were also treated with postemergence applications of test chemicals formulated in the same manner. Plants ranged in height from 2 to 18 cm (1- to 4-leaf stage) for postemergence treatments. Plant species in the flood test consisted of rice (Oryza sativa), smallflower flatsedge (Cyperus difformis), duck salad (Heteranthera limosa) and bamyardgrass (Echinochloa crus-galli) grown to the 2-leaf stage for testing. Treated plants and controls were maintained in a greenhouse for twelve to sixteen days, after which all species were compared to controls and visually evaluated. Plant response ratings, summarized in Table B, are based on a scale of 0 to 10 where 0 is no effect and 10 is complete control. A dash (−) response means no test result.
# [2] = tested on: rape (Brassica napus); test: Test B pre-/postemergence; settings: for Plant response rating, Rape: Preemergence; for Rape plant response rating: Postemergence
# Source text: as §1, §2
# [3] = tested on: wild oat (Avena fatua); test: Test B pre-/postemergence; settings: for Plant response rating, Wild oats: Preemergence; for Wild oats plant response rating: Postemergence
# Source text: as §1, §2
# [4] = tested on: velvetleaf (Abutilon theophrasti); test: Test B pre-/postemergence; settings: for Velvetleaf plant response rating: Postemergence
# Source text: as §1, §2
# [5] = tested on: sugar beet (Beta vulgaris); test: Test B pre-/postemergence; settings: for Plant response rating, Sugarbeets: Preemergence; for Sugarbeets plant response rating: Postemergence
# Source text: as §1, §2
# [6] = tested on: crabgrass (Digitaria sanguinalis); test: Test B pre-/postemergence; settings: for Plant response rating, Crabgrass: Preemergence; for Crabgrass plant response rating: Postemergence
# Source text: as §1, §2
# [7] = tested on: bedstraw (Galium aparine); test: Test B pre-/postemergence; settings: Rate 125 g/ha, Preemergence
# Source text: as §1, §2
# [8] = tested on: momingglory (Ipomoea hederacea); test: Test B pre-/postemergence; settings: for Plant response rating, Morningglory: Preemergence; for Morningglory plant response rating: Postemergence
# Source text: as §1, §2
# [9] = tested on: pigweed (Amaranthus retroflexus); test: Test B pre-/postemergence; settings: for Plant response rating, Redroot pigweed: Preemergence; for Redroot pigweed plant response rating: Postemergence
# Source text: as §1, §2
# [10] = tested on: broadleaf signalgrass (Brachiaria decumbens); test: Test B pre-/postemergence
# Source text: as §1, §2
# [11] = tested on: giant foxtail (Setaria faberii); test: Test B pre-/postemergence; settings: for Plant response rating, Giant foxtail: Preemergence; for Giant foxtail plant response rating: Postemergence
# Source text: as §1, §2
# [12] = tested on: soybean (Glycine max); test: Test B pre-/postemergence; settings: for Plant response rating, Soybean: Preemergence; for Soybean plant response rating: Postemergence
# Source text: as §1, §2
# [13] = tested on: cocklebur (Xanthium strumarium); test: Test B pre-/postemergence; settings: for Cocklebur plant response rating: Postemergence
# Source text: as §1, §2
# [14] = tested on: corn (Zea mays); test: Test B pre-/postemergence; settings: for Plant response rating, Corn: Preemergence; for Corn plant response rating: Postemergence
# Source text: as §1, §2
# [15] = tested on: wheat (Triticum aestivum); test: Test B pre-/postemergence; settings: for Plant response rating, Wheat: Preemergence; for Wheat plant response rating: Postemergence
# Source text: as §1, §2
# [16] = tested on: rice (Oryza sativa); test: Test B flood test
# Protocol: as §2
# [17] = tested on: smallflower flatsedge (Cyperus difformis); test: Test B flood test
# Protocol: as §2
# [18] = tested on: bamyardgrass (Echinochloa crus-galli); test: Test B flood test
# Protocol: as §2
# [19] = tested on: duck salad (Heteranthera limosa); test: Test B flood test
# Protocol: as §2
# [20] = Rate 62 g/ha, Postemergence (flood test)
# [21] = Rate 125 g/ha, Postemergence section (flood test species)
# [22] = Rate 250 g/ha, Postemergence (flood test species)
smiles,measurement,setting,value
CCc1cnc(-n2cnc(C(F)(F)F)c2)nc1C(=O)c1cccc(OC(F)(F)F)c1 [Compound 71],"Plant response rating, Blackgrass","[1]; Rate 62 g/ha, scale of 0 to 10",1
same,Blackgrass plant response rating,[1]; Rate 62 g/ha,2
same,Blackgrass plant response rating,[1]; Rate 125 g/ha,3
same,"Plant response rating, Blackgrass",[1]; Rate 125 g/ha,2
same,"Plant response rating, Rape","[2]; Rate 62 g/ha, scale of 0 to 10",2
same,Rape plant response rating,[2]; Rate 62 g/ha,5
same,Rape plant response rating,[2]; Rate 125 g/ha,7
same,"Plant response rating, Rape",[2]; Rate 125 g/ha,7
same,"Plant response rating, Wild oats","[3]; Rate 62 g/ha, scale of 0 to 10",0
same,Wild oats plant response rating,[3]; Rate 62 g/ha,2
same,Wild oats plant response rating,[3]; Rate 125 g/ha,2
same,"Plant response rating, Wild oats",[3]; Rate 125 g/ha,3
same,Velvetleaf plant response rating,[4]; Rate 62 g/ha,3
same,Velvetleaf plant response rating,[4]; Rate 125 g/ha,6
same,"Plant response rating, Velvetleaf","[4]; Rate 125 g/ha, Preemergence",6
same,"Plant response rating, Sugarbeets","[5]; Rate 62 g/ha, scale of 0 to 10",2
same,Sugarbeets plant response rating,[5]; Rate 62 g/ha,8
same,Sugarbeets plant response rating,[5]; Rate 125 g/ha,8
same,"Plant response rating, Sugarbeets",[5]; Rate 125 g/ha,3
same,"Plant response rating, Crabgrass","[6]; Rate 62 g/ha, scale of 0 to 10",2
same,Crabgrass plant response rating,[6]; Rate 62 g/ha,2
same,Crabgrass plant response rating,[6]; Rate 125 g/ha,3
same,"Plant response rating, Crabgrass",[6]; Rate 125 g/ha,2
same,"Plant response rating, Bedstraw",[7],1
same,"Plant response rating, Morningglory","[8]; Rate 62 g/ha, scale of 0 to 10",2
same,Morningglory plant response rating,[8]; Rate 62 g/ha,1
same,Morningglory plant response rating,[8]; Rate 125 g/ha,6
same,"Plant response rating, Morningglory",[8]; Rate 125 g/ha,4
same,"Plant response rating, Redroot pigweed","[9]; Rate 62 g/ha, scale of 0 to 10",6
same,Redroot pigweed plant response rating,[9]; Rate 62 g/ha,8
same,Redroot pigweed plant response rating,[9]; Rate 125 g/ha,8
same,"Plant response rating, Redroot pigweed",[9]; Rate 125 g/ha,8
same,B. signalgrass plant response rating,"[10]; Rate 62 g/ha, Postemergence",2
same,B. signalgrass plant response rating,"[10]; Rate 62 g/ha, Preemergence",0
same,B. signalgrass plant response rating,"[10]; Rate 125 g/ha, Postemergence",2
same,"Plant response rating, B. signalgrass","[10]; Rate 125 g/ha, Preemergence",2
same,"Plant response rating, Giant foxtail","[11]; Rate 62 g/ha, scale of 0 to 10",1
same,Giant foxtail plant response rating,[11]; Rate 62 g/ha,2
same,Giant foxtail plant response rating,[11]; Rate 125 g/ha,2
same,"Plant response rating, Giant foxtail",[11]; Rate 125 g/ha,2
same,"Plant response rating, Soybean","[12]; Rate 62 g/ha, scale of 0 to 10",0
same,Soybean plant response rating,[12]; Rate 62 g/ha,3
same,Soybean plant response rating,[12]; Rate 125 g/ha,4
same,"Plant response rating, Soybean",[12]; Rate 125 g/ha,0
same,Cocklebur plant response rating,[13]; Rate 62 g/ha,4
same,Cocklebur plant response rating,[13]; Rate 125 g/ha,4
same,"Plant response rating, Cocklebur","[13]; Rate 125 g/ha, Preemergence",0
same,"Plant response rating, Corn","[14]; Rate 62 g/ha, scale of 0 to 10",1
same,Corn plant response rating,[14]; Rate 62 g/ha,2
same,Corn plant response rating,[14]; Rate 125 g/ha,3
same,"Plant response rating, Corn",[14]; Rate 125 g/ha,1
same,"Plant response rating, Wheat","[15]; Rate 62 g/ha, scale of 0 to 10",1
same,Wheat plant response rating,[15]; Rate 62 g/ha,4
same,Wheat plant response rating,[15]; Rate 125 g/ha,4
same,"Plant response rating, Wheat",[15]; Rate 125 g/ha,3
same,Rice plant response rating,[16]; [20],2
same,Rice plant response rating,[16]; [21],2
same,"Plant response rating, Rice",[16]; [22],2
same,S. Flatsedge plant response rating,[17]; [20],0
same,S. Flatsedge plant response rating,[17]; [21],2
same,"Plant response rating, S. Flatsedge",[17]; [22],4
same,Barnyardgrass plant response rating,[18]; [20],2
same,Barnyardgrass plant response rating,[18]; [21],2
same,"Plant response rating, Barnyardgrass",[18]; [22],3
same,Ducksalad plant response rating,[19]; [20],0
same,Ducksalad plant response rating,[19]; [21],0
same,"Plant response rating, Ducksalad",[19]; [22],2
